From patent US8415469B2, “Compounds and methods for kinase modulation, and indications therefor” (Plexxikon Inc., priority 2005, dated 2013)

What was measured:
Assay type in all cases: biochemical
B-Raf = biological target: T1, B-Raf (Homo sapiens, UniProt P15056); test: AlphaScreen kinase assay, B-Raf; conditions: read-out: IC50, activity toward kinase B-Raf
T1 construct: purchased Upstate Biotechnology

B-Raf V600E = biological target: T2, B-Raf V600E (Homo sapiens, UniProt P15056, V600E); test: AlphaScreen kinase assay, B-Raf V600E; conditions: read-out: IC50, activity toward kinase B-Raf V600E
T2 construct: P4254. pFastBacBD-CDC37 BRAF D437-K722-X, V600E; His6 with pFastBac HT leader (TEV site) (N); made in house; host or cells: Sf9 (baculovirus; chaperone CDC37 co-expressed)

Fms = biological target: T3, Fms (Homo sapiens, UniProt P07333); test: AlphaScreen kinase assay, Fms; conditions: read-out: IC50, activity toward kinase Fms
T3 construct: purchased Upstate Biotechnology

Jnk1 = biological target: T4, Jnk1 (Homo sapiens, UniProt P45983); test: AlphaScreen kinase assay, Jnk1; conditions: read-out: IC50, activity toward kinase Jnk1
T4 construct: purchased Upstate Biotechnology

c-Raf-1 = biological target: T5, c-Raf-1 (Homo sapiens, UniProt P04049); test: AlphaScreen kinase assay, c-Raf-1; conditions: read-out: IC50, activity toward kinase c-Raf-1
T5 construct: purchased Upstate Biotechnology

Kit = biological target: T6, Kit (Homo sapiens, UniProt P10721); test: AlphaScreen kinase assay, Kit; conditions: read-out: IC50, activity toward kinase Kit
T6 construct: P1332.N6 BI PTP KIT M552-K948-X COD; His6 (N); made in house; host or cells: E. coli (PTP1B co-expressed)

FGFR1 = biological target: T7, FGFR1 (Homo sapiens, UniProt P11362, C488A/C584S); test: AlphaScreen kinase assay, FGFR1; conditions: read-out: IC50, activity toward kinase FGFR
T7 construct: P1351.pET N6 BI-PTP FGFR A458-E765-X C488A, C584S; made in house; host or cells: E. coli (PTP1B co-expressed)

Ret = biological target: T8, Ret (Homo sapiens, UniProt P07949); test: AlphaScreen kinase assay, Ret; conditions: read-out: IC50, activity toward kinase Ret
T8 construct: P1378.pET-SF BI-PTP RET H661-R1012 HIS; made in house
T8 sequence (P07949 with tags, fused parts or gaps): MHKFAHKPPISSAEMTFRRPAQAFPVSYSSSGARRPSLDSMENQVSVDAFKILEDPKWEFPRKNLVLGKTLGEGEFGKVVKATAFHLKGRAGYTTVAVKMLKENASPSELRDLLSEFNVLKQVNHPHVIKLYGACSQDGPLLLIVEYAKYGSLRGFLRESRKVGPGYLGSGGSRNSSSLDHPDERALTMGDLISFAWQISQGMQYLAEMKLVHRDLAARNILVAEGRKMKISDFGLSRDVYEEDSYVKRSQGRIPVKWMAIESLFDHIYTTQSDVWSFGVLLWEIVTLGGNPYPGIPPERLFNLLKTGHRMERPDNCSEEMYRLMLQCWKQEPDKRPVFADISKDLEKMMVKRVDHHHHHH

Flt1 = biological target: T9, Flt1 (Homo sapiens, UniProt P17948); test: AlphaScreen kinase assay, Flt1; conditions: read-out: IC50, activity toward kinase Flt1
T9 construct: P1826.pETN6 BI-PTP FLT1 M799-D1165-X WT; His6 (N); made in house; host or cells: E. coli (PTP1B co-expressed)
T9 sequence (P17948 with tags, fused parts or gaps): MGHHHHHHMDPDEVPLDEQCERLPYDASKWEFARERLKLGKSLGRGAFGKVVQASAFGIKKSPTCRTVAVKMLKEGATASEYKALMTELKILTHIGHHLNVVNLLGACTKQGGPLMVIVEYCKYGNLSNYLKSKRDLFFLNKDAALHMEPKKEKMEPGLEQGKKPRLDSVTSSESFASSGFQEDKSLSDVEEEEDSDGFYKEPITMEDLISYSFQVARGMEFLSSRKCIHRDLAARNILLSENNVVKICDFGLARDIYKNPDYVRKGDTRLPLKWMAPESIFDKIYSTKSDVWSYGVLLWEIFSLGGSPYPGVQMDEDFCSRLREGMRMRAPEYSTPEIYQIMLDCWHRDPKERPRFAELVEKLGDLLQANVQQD

Jnk3 = biological target: T10, Jnk3 (Homo sapiens, UniProt P53779); test: AlphaScreen kinase assay, Jnk3; conditions: read-out: IC50, activity toward kinase Jnk3
T10 construct: purchased Upstate Biotechnology
T10 sequence (P53779 whole entry): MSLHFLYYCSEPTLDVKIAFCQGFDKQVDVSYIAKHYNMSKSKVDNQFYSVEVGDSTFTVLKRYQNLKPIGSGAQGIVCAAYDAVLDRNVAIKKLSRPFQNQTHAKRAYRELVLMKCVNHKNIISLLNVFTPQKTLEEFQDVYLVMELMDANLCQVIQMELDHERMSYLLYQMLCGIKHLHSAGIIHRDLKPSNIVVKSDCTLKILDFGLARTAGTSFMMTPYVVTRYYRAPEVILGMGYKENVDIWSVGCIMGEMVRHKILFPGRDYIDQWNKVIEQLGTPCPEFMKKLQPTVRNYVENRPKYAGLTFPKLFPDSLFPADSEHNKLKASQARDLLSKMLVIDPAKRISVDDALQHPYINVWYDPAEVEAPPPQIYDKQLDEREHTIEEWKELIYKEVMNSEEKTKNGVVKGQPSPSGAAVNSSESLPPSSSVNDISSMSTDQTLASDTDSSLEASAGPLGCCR

T1 sequence (P15056 whole entry): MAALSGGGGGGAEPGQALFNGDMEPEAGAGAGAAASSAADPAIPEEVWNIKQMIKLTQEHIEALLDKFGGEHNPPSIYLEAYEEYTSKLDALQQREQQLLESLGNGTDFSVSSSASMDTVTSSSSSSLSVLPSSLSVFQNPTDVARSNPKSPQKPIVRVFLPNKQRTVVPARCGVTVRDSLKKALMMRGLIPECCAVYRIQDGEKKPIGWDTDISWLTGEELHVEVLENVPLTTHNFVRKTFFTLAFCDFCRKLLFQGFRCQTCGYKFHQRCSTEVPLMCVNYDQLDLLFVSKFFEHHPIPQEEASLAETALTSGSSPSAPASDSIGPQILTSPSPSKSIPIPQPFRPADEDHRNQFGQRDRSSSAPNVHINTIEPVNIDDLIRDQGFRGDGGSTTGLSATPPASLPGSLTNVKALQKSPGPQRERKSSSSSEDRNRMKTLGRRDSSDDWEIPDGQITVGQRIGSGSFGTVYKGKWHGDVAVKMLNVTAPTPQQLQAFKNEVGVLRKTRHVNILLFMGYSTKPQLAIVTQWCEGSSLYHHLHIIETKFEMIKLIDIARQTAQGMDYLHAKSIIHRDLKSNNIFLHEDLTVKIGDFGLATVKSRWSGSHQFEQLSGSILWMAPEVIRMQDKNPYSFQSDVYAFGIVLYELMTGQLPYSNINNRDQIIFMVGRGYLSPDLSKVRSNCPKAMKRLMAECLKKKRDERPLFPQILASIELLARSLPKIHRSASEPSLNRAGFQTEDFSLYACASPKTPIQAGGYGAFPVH
T5 sequence (P04049 whole entry): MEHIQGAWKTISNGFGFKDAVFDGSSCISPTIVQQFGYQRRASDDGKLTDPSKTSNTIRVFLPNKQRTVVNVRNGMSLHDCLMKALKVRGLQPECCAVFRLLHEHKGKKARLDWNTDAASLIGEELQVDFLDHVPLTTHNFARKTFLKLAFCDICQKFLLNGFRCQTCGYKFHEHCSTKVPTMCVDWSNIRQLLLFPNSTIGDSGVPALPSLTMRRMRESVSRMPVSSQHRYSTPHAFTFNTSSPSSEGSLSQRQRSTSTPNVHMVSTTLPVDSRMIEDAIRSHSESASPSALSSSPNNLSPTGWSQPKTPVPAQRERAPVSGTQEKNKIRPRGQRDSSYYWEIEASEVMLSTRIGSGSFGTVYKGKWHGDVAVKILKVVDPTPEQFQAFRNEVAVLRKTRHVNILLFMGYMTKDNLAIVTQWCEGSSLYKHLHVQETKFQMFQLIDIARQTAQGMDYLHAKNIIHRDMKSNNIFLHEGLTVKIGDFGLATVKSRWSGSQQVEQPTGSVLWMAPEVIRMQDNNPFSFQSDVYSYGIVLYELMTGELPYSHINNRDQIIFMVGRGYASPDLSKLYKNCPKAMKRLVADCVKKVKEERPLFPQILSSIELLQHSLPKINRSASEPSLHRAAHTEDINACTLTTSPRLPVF
T3 sequence (P07333 20-972): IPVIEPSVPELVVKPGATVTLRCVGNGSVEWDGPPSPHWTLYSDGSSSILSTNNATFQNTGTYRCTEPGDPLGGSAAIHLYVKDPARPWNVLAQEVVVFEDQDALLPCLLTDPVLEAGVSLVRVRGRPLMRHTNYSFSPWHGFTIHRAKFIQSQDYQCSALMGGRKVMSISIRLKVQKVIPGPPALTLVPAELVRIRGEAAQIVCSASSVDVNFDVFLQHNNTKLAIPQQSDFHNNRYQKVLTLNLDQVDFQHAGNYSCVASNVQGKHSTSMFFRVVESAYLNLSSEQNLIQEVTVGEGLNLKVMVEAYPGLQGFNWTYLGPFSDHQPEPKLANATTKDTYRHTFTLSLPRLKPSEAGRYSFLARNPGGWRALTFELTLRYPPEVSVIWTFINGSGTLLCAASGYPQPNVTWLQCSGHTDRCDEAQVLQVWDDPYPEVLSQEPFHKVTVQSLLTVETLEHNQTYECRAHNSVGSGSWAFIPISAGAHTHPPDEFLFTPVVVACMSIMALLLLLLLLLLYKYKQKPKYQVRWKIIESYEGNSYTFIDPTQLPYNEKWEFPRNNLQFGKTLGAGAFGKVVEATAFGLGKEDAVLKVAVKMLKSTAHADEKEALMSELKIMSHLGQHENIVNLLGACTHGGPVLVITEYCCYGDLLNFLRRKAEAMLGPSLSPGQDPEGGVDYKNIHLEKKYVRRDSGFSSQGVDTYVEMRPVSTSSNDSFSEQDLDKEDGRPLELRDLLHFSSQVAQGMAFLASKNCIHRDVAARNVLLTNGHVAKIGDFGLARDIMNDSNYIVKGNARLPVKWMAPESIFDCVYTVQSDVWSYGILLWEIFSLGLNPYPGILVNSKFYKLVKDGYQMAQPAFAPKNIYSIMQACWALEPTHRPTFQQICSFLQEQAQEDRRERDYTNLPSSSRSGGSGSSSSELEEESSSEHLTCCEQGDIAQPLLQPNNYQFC
T7 sequence (P11362 458-765 C488A/C584S): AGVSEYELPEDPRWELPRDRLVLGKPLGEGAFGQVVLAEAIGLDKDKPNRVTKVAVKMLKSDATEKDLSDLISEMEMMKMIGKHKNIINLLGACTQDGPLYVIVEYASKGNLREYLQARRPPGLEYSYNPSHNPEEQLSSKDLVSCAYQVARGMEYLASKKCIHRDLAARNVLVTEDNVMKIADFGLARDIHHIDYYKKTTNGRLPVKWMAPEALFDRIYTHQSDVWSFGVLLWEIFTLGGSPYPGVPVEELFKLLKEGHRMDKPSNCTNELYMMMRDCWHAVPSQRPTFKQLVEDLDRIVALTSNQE
T2 sequence (P15056 with tags, fused parts or gaps V600E): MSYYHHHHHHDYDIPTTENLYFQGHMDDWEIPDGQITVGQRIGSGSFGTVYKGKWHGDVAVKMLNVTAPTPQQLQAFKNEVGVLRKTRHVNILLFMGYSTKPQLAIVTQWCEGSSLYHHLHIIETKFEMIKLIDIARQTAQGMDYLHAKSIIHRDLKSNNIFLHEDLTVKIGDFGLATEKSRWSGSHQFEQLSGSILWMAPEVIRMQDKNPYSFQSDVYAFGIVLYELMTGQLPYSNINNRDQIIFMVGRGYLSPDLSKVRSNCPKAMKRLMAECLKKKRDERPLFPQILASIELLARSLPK
T4 sequence (P45983 whole entry): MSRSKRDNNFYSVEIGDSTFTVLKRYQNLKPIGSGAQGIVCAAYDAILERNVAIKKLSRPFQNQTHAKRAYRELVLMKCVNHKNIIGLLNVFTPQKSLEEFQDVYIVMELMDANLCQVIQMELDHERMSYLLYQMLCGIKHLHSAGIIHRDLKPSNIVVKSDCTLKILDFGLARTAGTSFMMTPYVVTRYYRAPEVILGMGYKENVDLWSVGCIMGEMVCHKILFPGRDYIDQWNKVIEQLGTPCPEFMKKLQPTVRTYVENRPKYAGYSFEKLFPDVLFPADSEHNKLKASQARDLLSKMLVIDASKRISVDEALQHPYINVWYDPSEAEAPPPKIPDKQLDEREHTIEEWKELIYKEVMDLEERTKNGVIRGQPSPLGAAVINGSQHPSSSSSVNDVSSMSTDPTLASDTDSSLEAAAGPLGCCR
T6 sequence (P10721 with tags, fused parts or gaps): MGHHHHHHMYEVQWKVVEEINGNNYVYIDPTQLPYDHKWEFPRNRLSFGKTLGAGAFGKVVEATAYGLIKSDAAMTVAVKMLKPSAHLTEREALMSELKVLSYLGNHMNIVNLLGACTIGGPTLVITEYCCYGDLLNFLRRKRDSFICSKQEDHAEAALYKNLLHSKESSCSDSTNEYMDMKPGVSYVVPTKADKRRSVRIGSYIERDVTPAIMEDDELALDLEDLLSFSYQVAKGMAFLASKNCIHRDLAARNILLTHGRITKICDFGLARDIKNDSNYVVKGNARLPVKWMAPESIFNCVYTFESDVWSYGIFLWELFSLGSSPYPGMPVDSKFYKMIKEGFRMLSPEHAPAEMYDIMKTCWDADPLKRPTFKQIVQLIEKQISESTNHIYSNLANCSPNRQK

IC50 (B-Raf) [µM] | IC50 (B-Raf V600E) [µM] | IC50 (Fms) [µM] | IC50 (Jnk1) [µM] | IC50 (c-Raf-1) [µM] | IC50 (Kit) [µM] | IC50 (FGFR1) [µM] | IC50 (Ret) [µM] | IC50 (Flt1) [µM] | IC50 (Jnk3) [µM] | Compound
≤ 10 | ≤ 10 | ≤ 10 | ≤ 10 | – | – | – | – | – | – | CCCS(=O)(=O)Nc1cccc(C(=O)c2c[nH]c3ncc(-c4ccc(F)cc4)cc23)c1 [Compound P-1639]
≤ 10 | ≤ 10 | ≤ 10 | ≤ 10 | ≤ 10 | ≤ 10 | – | – | – | – | CCCS(=O)(=O)Nc1ccc(F)c(C(=O)c2c[nH]c3ncc(-c4ccc(OC)nc4)cc23)c1F [Compound P-1879, Propane-1-sulfonic acid {2,4-difluoro-3-[5-(6-methoxy-pyridin-3-yl)-1H-pyrrolo[2,3-b]pyridine-3-carbonyl]-phenyl}-amide]
≤ 10 | ≤ 10 | ≤ 10 | ≤ 10 | – | – | – | – | – | – | CCCCNC(=O)Nc1ccc(F)c(C(=O)c2c[nH]c3ncc(-c4cccc(OC(F)(F)F)c4)cc23)c1 [Compound P-1660, 1-Butyl-3-{4-fluoro-3-[5-(3-trifluoromethoxy-phenyl)-1H-pyrrolo[2,3-b]pyridine-3-carbonyl]-phenyl}-urea]
≤ 10 | ≤ 10 | – | ≤ 10 | ≤ 10 | – | ≤ 10 | ≤ 10 | – | – | CS(=O)(=O)Nc1cccc(-c2cnc3[nH]cc(C(=O)c4c(Cl)ccc(NS(C)(=O)=O)c4F)c3c2)c1 [Compound P-0745, N-{4-Chloro-2-fluoro-3-[5-(3-methanesulfonylamino-phenyl)-1H-pyrrolo[2,3-b]pyridine-3-carbonyl]-phenyl}-methanesulfonamide]
≤ 10 | ≤ 10 | ≤ 10 | ≤ 10 | – | – | – | – | – | – | CCCS(=O)(=O)Nc1cccc(C(=O)c2c[nH]c3ncc(-c4cccnc4)cc23)c1C [Compound P-1631]
≤ 10 | ≤ 10 | ≤ 10 | ≤ 10 | ≤ 10 | ≤ 10 | ≤ 10 | – | ≤ 10 | – | CCCS(=O)(=O)Nc1ccc(F)c(C(=O)c2c[nH]c3ncc(-c4ccc(F)cc4)cc23)c1F [Compound P-1260, Propane-1-sulfonic acid {2,4-difluoro-3-[5-(4-fluoro-phenyl)-1H-pyrrolo[2.3 b]pyridine-3-carbonyl]-phenyl}-amide]
≤ 10 | ≤ 10 | ≤ 10 | ≤ 10 | – | ≤ 10 | – | – | – | – | COc1ccc(NC(=O)Nc2cccc(C(=O)c3c[nH]c4ncccc34)c2)cc1OC [Compound P-1708, 1-(3,4-Dimethoxy-phenyl)-3-[3-(1H-pyrrolo[2,3-b]pyridine-3-carbonyl)-phenyl]-urea]
≤ 10 | ≤ 10 | – | ≤ 10 | ≤ 10 | ≤ 10 | ≤ 10 | – | – | – | CCCS(=O)(=O)Nc1ccc(F)c(C(=O)c2c[nH]c3ncc(N4CCC(C)CC4)cc23)c1F [Compound P-0860, propane-1-sulfonic acid {2,4-difluoro-3-[5-(4-methyl-piperidin-1-yl)-1H-pyrrolo[2,3-b]pyridine-3-carbonyl]-phenyl}-amide]
≤ 10 | ≤ 10 | ≤ 10 | ≤ 10 | – | – | – | – | – | – | CCCS(=O)(=O)Nc1cccc(C(=O)c2c[nH]c3ncc(-c4cccnc4)cc23)c1 [Compound P-1638]
≤ 10 | ≤ 10 | ≤ 10 | ≤ 10 | – | ≤ 10 | ≤ 10 | – | ≤ 10 | – | CCCS(=O)(=O)Nc1ccc(F)c(C(=O)c2c[nH]c3ncc(-c4cccc(C(N)=O)c4)cc23)c1F [Compound P-1549, 3-{3-[2,6-Difluoro-3-(propane-1-sulfonylamino)-benzoyl]-1H-pyrrolo[2,3-b]pyridin-5-yl}-benzamide]
– | – | – | ≤ 10 | – | – | – | – | – | ≤ 10 | CN(C)c1ccc(Nc2ccc3cc[nH]c3n2)cc1 [Compound P-1356, N,N-Dimethyl-N′-(1H -pyrrolo[2,3-b]pyridin-6-yl)-benzene-1,4-diamine]
≤ 10 | ≤ 10 | ≤ 10 | ≤ 10 | – | ≤ 10 | – | – | ≤ 10 | – | O=C(NCc1ccccc1)Nc1cccc(C(=O)c2c[nH]c3ncc(Br)cc23)c1 [Compound P-1553, 1-Benzyl-3-[3-(5-bromo-1H-pyrrolo[2,3-b]pyridine-3-carbonyl)-phenyl]-urea]
≤ 10 | ≤ 10 | ≤ 10 | ≤ 10 | ≤ 10 | ≤ 10 | – | – | – | – | CCCS(=O)(=O)Nc1ccc(F)c(C(=O)c2c[nH]c3ncc(-c4cccc(N5CCOCC5)c4)cc23)c1F [Compound P-1873, Propane-1-sulfonic acid {2,4-difluoro-3-[5-(3-morpholin-4-yl-phenyl)-1H-pyrrolo[2,3-b]pyridine-3-carbonyl]-phenyl}-amide]
– | – | – | ≤ 10 | – | – | – | – | ≤ 10 | – | O=C(c1c[nH]c2ncc(-c3cccnc3)cc12)c1cccc2c1ccn2COCc1ccccc1 [Compound P-1523, (1-Benzyloxymethyl-1H-indol-4-yl)-(5-pyridin-3-yl-1H-pyrrolo[2,3-b]pyridin-3-yl)-methanone]
≤ 10 | ≤ 10 | ≤ 10 | ≤ 10 | – | – | – | – | – | – | CCCCNC(=O)Nc1ccc(F)c(C(=O)c2c[nH]c3ncc(Br)cc23)c1 [Compound P-1637, 1-[3-(5-Bromo-1H-pyrrolo[2,3-b]pyridine-3-carbonyl)-4-fluoro-phenyl]-3-butyl-urea]
≤ 10 | ≤ 10 | ≤ 10 | ≤ 10 | ≤ 10 | ≤ 10 | – | – | – | – | CCCS(=O)(=O)Nc1ccc(F)c(C(=O)c2c[nH]c3ncc(-c4cccc(CN5CCOCC5)c4)cc23)c1F [Compound P-1878, Propane-1-sulfonic acid {2,4-difluoro-3-[5-(3-morpholin-4-ylmethyl-phenyl)-1H-pyrrolo[2,3-b]pyridine-3-carbonyl]-phenyl}-amide]
≤ 10 | ≤ 10 | ≤ 10 | ≤ 10 | ≤ 10 | ≤ 10 | – | – | – | – | CC(C)c1ccc(S(=O)(=O)Nc2ccc(F)c(C(=O)c3c[nH]c4ncc(Cl)cc34)c2F)cc1 [Compound P-1839, N-[3-(5-chloro-1H-pyrrolo[2,3-b]pyridine-3-carbonyl)-2,4-difluoro-phenyl]-4-isopropyl-benzenesulfonamide]
≤ 10 | ≤ 10 | ≤ 10 | ≤ 10 | – | – | – | – | – | – | COc1ccc(NC(=O)Nc2cccc(C(=O)c3c[nH]c4ncc(-c5cccnc5)cc34)c2)cc1OC [Compound P-1725, 1-(3,4-Dimethoxy-phenyl)-3-[3-(5-pyridin-3-yl-1H-pyrrolo[2,3-b]pyridine-3-carbonyl)-phenyl]-urea]
≤ 10 | ≤ 10 | ≤ 10 | ≤ 10 | – | – | ≤ 10 | – | ≤ 10 | – | O=C(c1ccc(Cl)cc1Cl)c1c[nH]c2ncc(-c3cccnc3)cc12 [Compound P-1556]
≤ 10 | ≤ 10 | ≤ 10 | ≤ 10 | – | – | – | – | ≤ 10 | – | CCCCNC(=O)Nc1cccc(C(=O)c2c[nH]c3ncc(Br)cc23)c1 [Compound P-1596, 1-[3-(5-bromo-1H-pyrrolo[2,3-b]pyridine-3-carbonyl)-phenyl]-3-butyl-urea]
